Converted amounts (≈) assume the structure as drawn. Square brackets hold non-standard residues; d marks the D form. Peptide text beside a SMILES is read from it. Ac6c = NC1(C(=O)O)CCCCC1
Columns and labels:
E. coli 70S ribosome [1] = assay: Competitive fluorescence polarization assay against Cf-ARV-1502 (Ki); assay type: binding, E. coli BW25113; details: 20 nmol/L Cf-ARV-1502, 0.5 µmol/L ribosome, 28 °C, 90 min + 90 min, Ki calculated from IC50; for Ki: read-out: Ki (nmol/L), competition with Cf-ARV-1502
Description: (§1) E. coli 70S ribosomes were prepared using a previously described protocol that was slightly modified. Briefly, E. coli BW25113 was cultivated in Luria-Bertani (LB) medium and cells were harvested after reaching an optical density of ~4 at 600 nm by centrifugation (5000× g, 15 min, 4 °C, Rotor JLA 8.100, Avanti J-20 XP, Beckmann Coulter, Krefeld, Germany). The cell pellets were frozen and stored at −80 °C. Cells were resuspended in ribosome buffer (2 mL/g cells; 20 mmol/L HEPES-KOH, 6 mmol/L MgCl2, 30 mmol/L NH4Cl, 4 mmol/L 2-mercaptoethanol, pH 7.6). Lysozyme (0.25 g/L cell suspension) was added, and the mixture was incubated on ice for 30 min. Cells were disrupted using the bead mill homogenizer FastPrep-24™ 5G (40 s, 4 m/s, 6 cycles, MP Biomedicals Germany GmbH, Eschwege, Germany) and zirconia/silica beads (0.1 mm diameter). The lysate was centrifuged (1500× g, 5 min, 4 °C, Rotor S4180, Allegra 21R, Beckmann Coulter) and the supernatant was incubated with DNase (5 U/mL) on ice for 60 min.
Dissociation and inhibitory constants were determined in black 384-well-plates (Greiner Bio-One GmbH, Frickenhausen, Germany) blocked with 0.5% (w/v) casein in phosphate buffered saline (PBS, 8.8 mmol/L Na2HPO4×12 H2O, 1.2 mmol/L KH2PO4, 0.3 mol/L NaCl, pH 7.4) containing 0.05% (w/v) Tween® 20 (PBST) overnight at 4 °C and washed three times with PBST.
Ribosome solution was added (10 µmol/L) and the plate was incubated after centrifugation (2 min, 500× g, Rotor S2096, Allegra^TM 21R, Beckmann Coulter) at 28 °C for 90 min. Cf-labeled peptide was added (10 µL; final concentration of 20 nmol/L; final ribosome concentration of 0.5 µmol/L) and the plate was centrifuged and incubated again (90 min, 28 °C, dark). […] Kd and IC50 values were calculated by fitting the data with a variable slope parameter [y = min + (max − min)/(1 + (x/Kd) ^−Hill slope) ] using SigmaPlot 13 (Systat Software Inc., San Jose, CA, USA). The obtained IC50 values were used to calculate the Ki values.

E. coli BW25113 = assay: MIC, liquid broth micro dilution, wild type; assay type: cell-based, Escherichia coli; details: for MIC (µg/mL), Table 3: BW25113, 4 h; for Minimal Inhibitory Concentration, 25% MHB2, wt / Minimal Inhibitory Concentration, 33% TSB, wt: BW25113, 20 h
Description: (§2) MIC values were determined using a liquid broth micro dilution assay in sterile 96-well plates (polystyrene F-bottom, Greiner Bio-One GmbH) and a total volume of 100 μL per well. Aqueous peptide solutions (10 g/L) were serially twofold diluted in 25% Mueller-Hinton broth 2 (25% MBH2) or 33% tryptic soy broth (33% TSB) starting at a peptide concentration of 128 mg/L (50 μL/well). Overnight cultures of bacteria grown in 25% MHB2 (or 33% TSB) were diluted 30-fold in 25% MHB2 (or 33% TSB). After an incubation period of 4 h (37 °C, 200 rpm), cells were diluted to 1.5 × 10^7 cfu/mL, based on a McFarland test, and 50 μL were added to each well (final concentration of 7.5 × 10^6 […]). The plates were incubated (37 °C, 20 h) and the optical density was recorded at 595 nm using a microplate reader ([…]^TM, Beckmann Coulter). The MIC was defined as the lowest peptide concentration preventing visible bacterial growth.

E. coli 70S ribosome [2] = assay: Cell-free GFP expression assay (in vitro translation); assay type: biochemical; details: for In Vitro Translation (%): GFP expression remaining relative to control, concentration not given (higher concentration 50 µmol/L)
Source text: Possible effects of ARV-1502 and its substituted analogs on the in vitro translation of the green fluorescent protein (GFP) were probed using the NEB PureExpress Delta RF123 Kit (New England Biolabs, Ipswich, MA, USA). The sfGFP DNA template was amplified from pY71sfGFP plasmid by PCR introducing an UAA stop codon. Release factor 1 (RF1) was 50fold diluted in Pure System Buffer (PSB) containing magnesium acetate (1 mol/L), monopotassium phosphate (0.5 mol/L, pH 7.3), potassium glutamate (1 mol/L), NH4Cl (1 mol/L), calcium chloride (0.5 mol/L), spermidine (1 mol/L), putrescine (0.1 mol/L), and DTT (0.1 mol/L). Each reaction used 35 ng of sfGFP template. Peptides were added at a final concentration of 5 µmol/L and 50 µmol/L. The reaction was started by adding Kit solutions A (2 µL) and B (1.5 µL), diluted RF1 (0.5 µL), sfGFP template (0.25 µL or water as negative control), PSB (0.25 µL), and peptide (0.5 µL or water), mixed, transferred into a black 384-well plate (flat bottom, Greiner Bio-One GmbH), and incubated (37 °C, 2 h). The fluorescence was recorded every 10 min (λexc = 485 nm, λem = 535 nm) in a microplate reader (Gemini EM, Molecular Devices LLC, San Jose, CA, USA).

E. coli 70S ribosome [3] = assay: Competitive FP binding screening assay with Cf-ARV-1502 (relative FP); design: species or system E. coli BW25113; details: for Ribosome Binding (%): competitive ribosome binding against Cf-ARV-1502 (relative FP; values match 1.2 µmol/L peptide), low value = strong competition
Description: as §1, with “60 min. The cell debris was removed by two centrifugation steps (16,000× g, 30 min, 4 °C followed by 32,000× g, 60 min, 4 °C, Rotor JA 30.50 Ti, Avanti J-30I, Beckmann Coulter). The ribosome was pelleted by ultracentrifugation (165,000× g, 17 h, 4 °C, Rotor 70 Ti, Optima LE-80K, Beckmann Coulter), resuspended in ribosome buffer (0.1 mL/g pellet), and stored at −80 °C. The ribosome concentration was determined by recording the absorbance of RNA at 260 nm (NanoPhotometer NP80, Implen GmbH, München, Germany) assuming that 1 AU corresponds to a ribosome concentration of 28 nmol/L. The molecular weight of the E. coli 70S ribosome was assumed to be 2.3 MDa.” for “60 min.”
E. coli 70S ribosomes and Cf-ARV-1502 were incubated with four different concentrations of unlabeled peptides chosen based on the IC50 curves of reference peptide ARV-1502. Each peptide was diluted in ribosome buffer to obtain a concentration of 4.8 µmol/L and transferred to a 384-well-plate. Peptides were then twofold serially diluted in four steps from 4.8 to 0.6 µmol/L (20 µL). The ribosome extract was diluted in ribosome buffer to reach a concentration of 2 µmol/L and 10 µL were added to each well to obtain a final ribosome concentration of 0.5 µmol/L. Plates were centrifuged (2 min, 500× g, Rotor S2096, Allegra^TM 21R, Beckmann Coulter) and incubated at 28 °C for 90 min. Cf-labeled ARV-1502 was added (10 µL; final concentration of 20 nmol/L) and the plates were again centrifuged and incubated (28 °C, 90 min). After incubation, fluorescence polarization was recorded on a […]^TM microplate reader (λex = 485 nm, λem = 535 nm).
On each plate 12 minimum (30 µL ribosome buffer and 10 µL Cf-ARV-1502) and 12 maximum (20 µL ribosome buffer, 10 µL ribosome solution and 10 µL Cf-ARV-1502) control samples were added. Fluorescence polarization of screening samples was normalized to the fluorescence polarization of these control samples. All screening samples were measured in triplicates and the whole experiment was repeated once on another day.

[4] = test system: E. coli BW25113 ∆sbmA ∆mdtM; assay type: cell-based, Escherichia coli
Description: as §2

E. coli BW25113 ∆sbmA = assay type: cell-based, Escherichia coli
Description: as §2

[5] = 25% MHB2, 37 °C, 20 h, at least duplicates on two days, * once on two days, ** duplicate on one day
[6] = 33% TSB, 37 °C, 20 h, at least duplicates on two days, * once on two days, ** duplicate on one day

Row | Structure (SMILES) | Ki (E. coli 70S ribosome [1]) [nmol/L] | MIC (µg/mL), Table 3 (E. coli BW25113) [µg/mL] | Minimal Inhibitory Concentration, 25% MHB2, wt (E. coli BW25113) [µg/mL] | Minimal Inhibitory Concentration, 33% TSB, wt (E. coli BW25113) [µg/mL] | In Vitro Translation (%) (E. coli 70S ribosome [2]) | Ribosome Binding (%) (E. coli 70S ribosome [3]) | further results
1 | O=C(N[C@H](CO)[C@H](O)c1ccc([N+](=O)[O-])cc1)C(Cl)Cl [Chloramphenicol] | 1700 ± 481 |  |  |  |  |  | 
2 | CC[C@H]1OC(=O)[C@H](C)[C@@H](O[C@H]2C[C@@](C)(OC)[C@@H](O)[C@H](C)O2)[C@H](C)[C@@H](O[C@@H]2O[C@H](C)C[C@H](N(C)C)[C@H]2O)[C@](C)(O)C[C@@H](C)C(=O)[C@H](C)[C@@H](O)[C@]1(C)O [Erythromycin] | 23 ± 1.6 |  |  |  |  |  | 
3 | CC(C)C[C@H](NC(=O)[C@H](Cc1ccc(O)cc1)NC(=O)[C@@H]1CCCN1C(=O)[C@H](CCCNC(=N)N)NC(=O)[C@@H]1CCCN1C(=O)[C@H](CC(=O)O)NC(=O)[C@H](CO)NC(=O)[C@@H]1CCCN1C(=O)[C@H](CCCNC(=N)N)NC(=O)C1(N)CCCCC1)C(=O)N1CCC[C@H]1C(=O)N[C@@H](CCCNC(=N)N)C(=O)N1CCC[C@H]1C(=O)N[C@@H](CCCNC(=N)N)C(=O)N1CCC[C@H]1C(=O)N1CCC[C@H]1C(=O)N[C@@H](CCCNC(=N)N)C(=O)N1CCC[C@H]1C(=O)N[C@H](C(=O)N[C@@H](CCCNC(=N)N)C(N)=O)C(C)C [Peptide 50] (H-[Ac6c]RPSDPRPYLPRPRPPRPVR-NH2) |  | 128 (≈ 52.6 µM) | 128 | 64 | 113.7 ± 9.1 | 67.9 ± 4.8 | MIC / activity against E. coli (E. coli BW25113; medium not given): low activity against E. coli; Inhibition of Cf-ARV-1502 binding to the 70S ribosome (in words) (E. coli 70S ribosome [3]; Figure 3: peptide concentration 1.2 µmol/L): inhibited Cf-ARV-1502; Minimal Inhibitory Concentration, 25% MHB2, ∆sbmA ∆mdtM [4, 5]: >128 µg/mL; Minimal Inhibitory Concentration, 33% TSB, ∆sbmA ∆mdtM [4, 6]: >128 µg/mL; Minimal Inhibitory Concentration, 25% MHB2, ∆sbmA (E. coli BW25113 ∆sbmA; [5]): >128 µg/mL; Minimal Inhibitory Concentration, 33% TSB, ∆sbmA (E. coli BW25113 ∆sbmA; [6]): >128 µg/mL
4 | CC(C)C[C@H](NC(=O)[C@H](Cc1ccc(O)cc1)NC(=O)[C@@H]1CCCN1C(=O)[C@H](CCCNC(=N)N)NC(=O)[C@@H]1CCCN1C(=O)[C@H](Cc1ccccc1)NC(=O)[C@H](Cc1ccccc1)NC(=O)[C@@H]1CCCN1C(=O)[C@H](CCCNC(=N)N)NC(=O)C1(N)CCCCC1)C(=O)N1CCC[C@H]1C(=O)N[C@@H](CC(C)C)C(=O)N1CCC[C@H]1C(=O)N[C@@H](CCCNC(=N)N)C(=O)N1CCC[C@H]1C(=O)N1CCC[C@H]1C(=O)N[C@@H](CCCNC(=N)N)C(=O)N1CCC[C@H]1C(=O)N[C@H](C(=O)N[C@@H](CCCNC(=N)N)C(N)=O)C(C)C [Peptide 102] (H-[Ac6c]RPFFPRPYLPLPRPPRPVR-NH2; N-terminus and C-terminus assumed) |  | 32 to 64 | 32 to 64 | 64 | 78.9 ± 3.5 | 76.5 ± 5.6 | Reduction of GFP expression, 50 µmol/L peptide (E. coli 70S ribosome [2]; cell-free expression, peptide-to-ribosome ratio of 25, GFP fluorescence, 37 °C): ~ 25%; Effect of the additional mdtM knockout on antibacterial activity ([4]; ∆sbmA ∆mdtM compared with ∆sbmA): no effect; Effect of deletion of SbmA on antibacterial activity (E. coli BW25113 ∆sbmA; ∆sbmA compared with wild-type strain): no effect
5 | [H]/N=C(/N)N[C@H]1[C@H](O)[C@@H](O)[C@H](O[C@@H]2O[C@@H](C)[C@](O)(C=O)[C@H]2O[C@@H]2O[C@@H](CO)[C@H](O)[C@@H](O)[C@@H]2NC)[C@@H](N/C(N)=N\[H])[C@@H]1O [Streptomycin] |  |  |  |  |  |  | Ki (nmol/L), competition with Cf-ARV-1502 (E. coli 70S ribosome [1]): no fit; Ki (nmol/L), competition with Cf-ARV-1502 (E. coli 70S ribosome [1]; listed as streptomycin): did not affect the binding of Cf-ARV-1502
